“And” between values parts separate entries of the source, which are not always exact repeats. Identical values can stand only once. Like-named read-outs stand apart in the source and are kept apart here.
Tests used:
MtbCoaBC = MtbCoaBC (Mycobacterium tuberculosis, UniProt P9WNZ1); assay: biochemical; type: biochemical; conditions: for activity at 0.03125 µM / activity at 0.0625 µM / activity at 0.25 µM / activity at 0.5 µM / activity at 1 µM / activity at 2 µM: relative to average DMSO CT; for Activity R1 / Activity R3: slope of absorbance at 360nm vs time (s)
Chain of MtbCoaBC (P9WNZ1 whole entry): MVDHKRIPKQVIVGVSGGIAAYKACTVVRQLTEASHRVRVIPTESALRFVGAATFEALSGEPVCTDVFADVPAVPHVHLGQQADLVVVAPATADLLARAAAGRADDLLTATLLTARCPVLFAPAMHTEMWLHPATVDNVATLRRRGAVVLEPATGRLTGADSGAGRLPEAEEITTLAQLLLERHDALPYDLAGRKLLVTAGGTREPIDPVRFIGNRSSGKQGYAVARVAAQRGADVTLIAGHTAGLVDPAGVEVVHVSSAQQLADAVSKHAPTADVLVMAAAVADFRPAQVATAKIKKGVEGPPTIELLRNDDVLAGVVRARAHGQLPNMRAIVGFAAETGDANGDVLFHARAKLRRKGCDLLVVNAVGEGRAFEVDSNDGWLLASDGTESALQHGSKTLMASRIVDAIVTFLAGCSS

M. tuberculosis H37Rv = assay: MIC determination in different media; type: cell-based; conditions: Mycobacterium tuberculosis, read-out: Minimum inhibitory concentration (MIC)

In the case of Cc1ccc(-c2oc3cc(O)cc(O)c3c(=O)c2O)cc1C [compound 2d], the inhibition at 0.03125 µM (MtbCoaBC; 2d at 0.03125 uM, replicate R1, read-out: Inhibition % R1) is reported as 0.7%, the activity at 0.03125 µM (MtbCoaBC; 2d at 0.03125 uM, replicate R1, read-out: Activity % R1) is reported as 99.3% and the “Activity R1” value (MtbCoaBC; 2d at 0.03125 uM, replicate R1) is reported as 0.0001845. It also gave an inhibition at 0.03125 µM (MtbCoaBC; 2d at 0.03125 uM, replicate R2, read-out: Inhibition % R2) of 0.97%, an activity at 0.03125 µM (MtbCoaBC; 2d at 0.03125 uM, replicate R2, read-out: Activity % R2) of 99% and an inhibition at 0.03125 µM (MtbCoaBC; 2d at 0.03125 uM, replicate R3, read-out: Inhibition % R3) of 0.58%. The activity at 0.03125 µM (MtbCoaBC; 2d at 0.03125 uM, replicate R3, read-out: Activity % R3) was 99.4%, the “Activity R3” value (MtbCoaBC; 2d at 0.03125 uM, replicate R3) was 0.0001847 and the inhibition at 0.0625 µM (MtbCoaBC; 2d at 0.0625 uM, replicate R1, read-out: Inhibition % R1) was 8.46%. For the same compound, the activity at 0.0625 µM (MtbCoaBC; 2d at 0.0625 uM, replicate R1, read-out: Activity % R1) was 91.5%, the “Activity R1” value (MtbCoaBC; 2d at 0.0625 uM, replicate R1) was 0.0001701 and the inhibition at 0.0625 µM (MtbCoaBC; 2d at 0.0625 uM, replicate R2, read-out: Inhibition % R2) was 5.42%. It also gave an activity at 0.0625 µM (MtbCoaBC; 2d at 0.0625 uM, replicate R2, read-out: Activity % R2) of 94.6%, an inhibition at 0.0625 µM (MtbCoaBC; 2d at 0.0625 uM, replicate R3, read-out: Inhibition % R3) of 3.86% and an activity at 0.0625 µM (MtbCoaBC; 2d at 0.0625 uM, replicate R3, read-out: Activity % R3) of 96.1%. For the same compound, the “Activity R3” value (MtbCoaBC; 2d at 0.0625 uM, replicate R3) was 0.0001786, the inhibition at 0.25 µM (MtbCoaBC; 2d at 0.25 uM, replicate R1, read-out: Inhibition % R1) was 14.5% and the activity at 0.25 µM (MtbCoaBC; 2d at 0.25 uM, replicate R1, read-out: Activity % R1) was 85.5%. For the same compound, the “Activity R1” value (MtbCoaBC; 2d at 0.25 uM, replicate R1) was 0.0001588, the inhibition at 0.25 µM (MtbCoaBC; 2d at 0.25 uM, replicate R2, read-out: Inhibition % R2) was 31.1% and the activity at 0.25 µM (MtbCoaBC; 2d at 0.25 uM, replicate R2, read-out: Activity % R2) was 68.9%. For the same compound, the inhibition at 0.25 µM (MtbCoaBC; 2d at 0.25 uM, replicate R3, read-out: Inhibition % R3) was 29.5%, the activity at 0.25 µM (MtbCoaBC; 2d at 0.25 uM, replicate R3, read-out: Activity % R3) was 70.5% and the “Activity R3” value (MtbCoaBC; 2d at 0.25 uM, replicate R3) was 0.000131. For the same compound, the inhibition at 0.5 µM (MtbCoaBC; 2d at 0.5 uM, replicate R1, read-out: Inhibition % R1) was 41%, the activity at 0.5 µM (MtbCoaBC; 2d at 0.5 uM, replicate R1, read-out: Activity % R1) was 59% and the “Activity R1” value (MtbCoaBC; 2d at 0.5 uM, replicate R1) was 0.0001096. The inhibition at 0.5 µM (MtbCoaBC; 2d at 0.5 uM, replicate R2, read-out: Inhibition % R2) was 49.6%, the activity at 0.5 µM (MtbCoaBC; 2d at 0.5 uM, replicate R2, read-out: Activity % R2) was 50.4% and the inhibition at 0.5 µM (MtbCoaBC; 2d at 0.5 uM, replicate R3, read-out: Inhibition % R3) was 54%. The activity at 0.5 µM (MtbCoaBC; 2d at 0.5 uM, replicate R3, read-out: Activity % R3) was 46%, the “Activity R3” value (MtbCoaBC; 2d at 0.5 uM, replicate R3) was 8.549e-5 and 0.000085493 and the inhibition at 1 µM (MtbCoaBC; 2d at 1 uM, replicate R1, read-out: Inhibition % R1) was 63%. For the same compound, the activity at 1 µM (MtbCoaBC; 2d at 1 uM, replicate R1, read-out: Activity % R1) was 37%, the “Activity R1” value (MtbCoaBC; 2d at 1 uM, replicate R1) was 6.875e-5 and 0.000068751 and the inhibition at 1 µM (MtbCoaBC; 2d at 1 uM, replicate R2, read-out: Inhibition % R2) was 75%. For the same compound, the activity at 1 µM (MtbCoaBC; 2d at 1 uM, replicate R2, read-out: Activity % R2) was 25%, the inhibition at 1 µM (MtbCoaBC; 2d at 1 uM, replicate R3, read-out: Inhibition % R3) was 72.4% and the activity at 1 µM (MtbCoaBC; 2d at 1 uM, replicate R3, read-out: Activity % R3) was 27.6%. The “Activity R3” value (MtbCoaBC; 2d at 1 uM, replicate R3) was 5.136e-5 and 0.000051357, the inhibition at 2 µM (MtbCoaBC; 2d at 2 uM, replicate R1, read-out: Inhibition % R1) was 79% and the activity at 2 µM (MtbCoaBC; 2d at 2 uM, replicate R1, read-out: Activity % R1) was 21%. The “Activity R1” value (MtbCoaBC; 2d at 2 uM, replicate R1) was 3.9e-5 and 0.000039000, the inhibition at 2 µM (MtbCoaBC; 2d at 2 uM, replicate R2, read-out: Inhibition % R2) was 91% and the activity at 2 µM (MtbCoaBC; 2d at 2 uM, replicate R2, read-out: Activity % R2) was 8.99%. For the same compound, the inhibition at 2 µM (MtbCoaBC; 2d at 2 uM, replicate R3, read-out: Inhibition % R3) was 85%, the activity at 2 µM (MtbCoaBC; 2d at 2 uM, replicate R3, read-out: Activity % R3) was 15% and the “Activity R3” value (MtbCoaBC; 2d at 2 uM, replicate R3) was 2.786e-5 and 0.000027864. For the same compound, the “Activity R1” value (MtbCoaBC; 2d at […], replicate R1) was 0.0001624, the “Activity R3” value (MtbCoaBC; 2d at […], replicate R3) was 0.0001724 and the IC50 (MtbCoaBC; CoaB activity, […] CTP, […] PPA, 500 µM L-cysteine, average of three independent experiments ± SD, read-out: IC50 EnzChek MtbCoaBC) was 540 ± 60 nM. For the same compound, the MIC (M. tuberculosis H37Rv; 7H9/ADC/Glycerol) was > 250 µM, the MIC (M. tuberculosis H37Rv; 7H9/Cholesterol/Tyloxapol) was > 250 µM and the MIC (M. tuberculosis H37Rv; GAST/Fe) was > 250 µM.

Source: article PMC7794376 (Nature Communications, 2021)
